Like-named read-outs stand apart in the source and are kept apart here.

One series addresses T1, HMG-CoA reductase (Homo sapiens, UniProt P04035).
T1 sequence (P04035 1-888): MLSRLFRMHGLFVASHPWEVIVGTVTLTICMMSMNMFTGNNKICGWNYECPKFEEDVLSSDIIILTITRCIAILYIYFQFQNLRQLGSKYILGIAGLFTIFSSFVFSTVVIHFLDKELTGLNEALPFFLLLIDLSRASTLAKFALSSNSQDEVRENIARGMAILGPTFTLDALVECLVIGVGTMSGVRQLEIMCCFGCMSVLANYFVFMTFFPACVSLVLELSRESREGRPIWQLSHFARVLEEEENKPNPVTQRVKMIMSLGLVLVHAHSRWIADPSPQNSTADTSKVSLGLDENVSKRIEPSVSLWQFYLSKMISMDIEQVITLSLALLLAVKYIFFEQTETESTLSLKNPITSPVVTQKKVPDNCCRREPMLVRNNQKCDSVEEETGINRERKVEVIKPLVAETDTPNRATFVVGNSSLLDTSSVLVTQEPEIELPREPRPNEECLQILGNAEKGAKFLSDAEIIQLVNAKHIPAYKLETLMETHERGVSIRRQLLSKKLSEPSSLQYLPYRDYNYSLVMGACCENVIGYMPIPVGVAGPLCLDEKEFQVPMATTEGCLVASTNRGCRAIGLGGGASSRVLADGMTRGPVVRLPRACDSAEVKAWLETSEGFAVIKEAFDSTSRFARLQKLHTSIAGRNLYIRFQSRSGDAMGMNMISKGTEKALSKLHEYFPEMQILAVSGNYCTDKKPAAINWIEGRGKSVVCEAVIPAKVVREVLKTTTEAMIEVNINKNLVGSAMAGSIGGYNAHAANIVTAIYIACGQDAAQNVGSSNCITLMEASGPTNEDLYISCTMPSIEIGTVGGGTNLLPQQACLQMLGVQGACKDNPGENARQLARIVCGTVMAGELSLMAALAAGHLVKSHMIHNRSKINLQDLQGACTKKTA
The note with it: cited from earlier work.

Series [1] in a line: Pharmacokinetic analysis after a single oral dose to male dogs (plasma atorvastatin, metabolites, gemcabene). The following applies: administered in the absence of atorvastatin calcium versus with atorvastatin calcium (FIG. 15). Format: in vivo, beagle dogs.
The test system of series [2] is hypercholesterolemic human subjects. The note with it: cited from earlier work.
The conditions of series [3]: in vivo; cited from earlier work.

As for `CC(C)c1c(C(=O)Nc2ccccc2O)c(-c2ccccc2)c(-c2ccc(F)cc2)n1CCC(O)CC(O)CC(=O)O` (centres unmarked) [2-hydroxy-atorvastatin acid], the “pharmacological activity (inhibitory activity on HMG-CoA reductase)” value is on record as “pharmacologically equipotent to parent atorvastatin” at HMG-CoA reductase and “active towards HMG-CoA reductase” on HMG-CoA reductase (listed as 2-hydroxy-atrovastatin).

On to `CC(C)c1c(C(=O)Nc2ccccc2O)c(-c2ccccc2)c(-c2ccc(F)cc2)n1CCC1CC(O)CC(=O)O1` (centres unmarked) [2-hydroxy-atorvastatin lactone], for which the “pharmacological activity (inhibitory activity on HMG-CoA reductase)” value on HMG-CoA reductase was “pharmacologically inactive”.

As to `CC(C)c1c(C(=O)Nc2ccc(O)cc2)c(-c2ccccc2)c(-c2ccc(F)cc2)n1CC[C@@H](O)C[C@@H](O)CC(=O)O` [4-hydroxy-atorvastatin acid], the “pharmacological activity (inhibitory activity on HMG-CoA reductase)” value at HMG-CoA reductase is reported as “pharmacologically equipotent to parent atorvastatin”; on HMG-CoA reductase (listed as 4-hydroxy-atorvastatin), “active towards HMG-CoA reductase”.

On to `CC(C)c1c(C(=O)Nc2ccc(O)cc2)c(-c2ccccc2)c(-c2ccc(F)cc2)n1CCC1CC(O)CC(=O)O1` (centres unmarked) [4-hydroxy-atorvastatin lactone], for which the “pharmacological activity (inhibitory activity on HMG-CoA reductase)” value at HMG-CoA reductase was “pharmacologically inactive”.

Regarding `CC(C)c1c(C(=O)Nc2ccccc2)c(-c2ccccc2)c(-c2ccc(F)cc2)n1CC[C@@H]1C[C@@H](O)CC(=O)O1` [atorvastatin lactone], the “pharmacological activity (inhibitory activity on HMG-CoA reductase)” value at HMG-CoA reductase is “pharmacologically inactive”.

For the compound `CC(C)(CCCCOCCCCC(C)(C)C(=O)O)C(=O)O` [gemcabene calcium, 6,6′-oxybis(2,2-dimethylhexanoic acid)], the “pharmacokinetic profile of gemcabene” value in series [1] is “essentially the same”. Besides, the triglycerides result in series [2] (patients having type IIb hyperlipidemia, certain doses with a statin, versus either alone) was “surprising ability to lower triglycerides”. For the same compound, in series [2] (patients on a stable dose of statin not able to reach the target LDL-C goal), the LDL-C levels entry is reported as “further reduce LDL-C levels”. In series [2] (separate administration with a statin, versus a statin alone), the “plasma levels of LDL cholesterol (LDL-C)” value is listed as “significantly reduce”. Besides, the fibrinogen entry in series [2] (some doses with a statin, hypercholesterolemic human subjects with elevated fibrinogen levels) is on record as “lower fibrinogen”. The c-reactive protein result in series [2] (with a statin, versus statin treatment alone) is listed as “reduce c-reactive protein to an extent greater than the statin treatment alone”. Moreover, the “effect on the pharmacokinetics of simvastatin and atorvastatin” value in series [3] is “not to significantly affect”.

Source of the values: patent publication US20190008779A1, “GEMCABENE COMPOSITIONS AND METHODS OF USE THEREOF” (GEMPHIRE THERAPEUTICS INC., priority 2017, published 2019).
